US10513529B2, “1,2,4-triazolo-[3,4-b]-1,3,4-thiadiazole derivatives” (GALENICA S.A., priority 2016, dated 2019)

Key:
Assay type in all cases: cell-based
[1] = test system: OVCAR-3 human ovarian cancer cell line; experiment: MTT cytostatic-cytotoxic activity, OVCAR-3; details: OVCAR-3, 48 h treatment; for GI50 / IC50: Homo sapiens; for IC50: kills 50% of the cells
Description: SKOV-3 (SKOV-3) (ATCC HTB 77) and OVCAR-3 (ATCC® HTB-161™)
Human ovarian adenocarcinoma cells, which are grown easily in monolayer culture with epithelial-like morphology. SKOV-3 are resistant to tumor necrosis factor (TNF) and to other cytotoxic drugs such as cisplatin, and adriamycin, while OVCAR-3 are resistant to adriamycin, cisplatin and melphalan. These cell lines express androgens, estrogens and progesterone receptors. When SKOV-3 or OVCAR-3 cells are subcutaneously implanted in nude mice, SCID mice, a moderately differentiated tumor develops, and the resulting model resembles primary ovarian adenocarcinoma in humans.
(§1) All cancer cell lines are stored in a liquid nitrogen tank in 2.5 ml cryovials (Corning-Costar, Cambridge, Mass.). DMSO (dimethylsulfoxide) act as a cryoprotectant and is added to prevent the formation of ice crystals which may lyse the cells. The Cells were grown as monolayer cultures in T-75 flasks (Corning-Costar, Cambridge, Mass.) and maintained at 37° C. in 5% CO2 incubator & 100% relative humidity. The cultures medium used are McCoy's 5a Medium, supplemented with 10% fetal bovine serum (FBS, Gibco) and 1% antibiotics (100 IU/ml penicillin/100 µg/ml streptomycin), sterilized by filtration (Corning-Costar filter, diameter 0.2 μm, RPMI-1640 and 50% RPMI-1640 (Catalog No 30-2001) plus 50% Mammary Epithelial Growth Medium (MEGM), supplemented with 10% fetal bovine serum (FBS, Gibco) and 1% antibiotics (100 IU/ml penicillin/100 μg/ml streptomycin). The passage is performed every 3-4 to days as follows: Cells are washed with sterile PBS (Phosphate buffered saline): 8 g/l NaCl, 0,2 g/l KCl, 1,15 g/l Na2HPO4καl 0,2 g/l KH2PO4. pH:7,4), add 2-3 ml 0.05% trypsin (Gibco 1:250) and 0.02% EDTA to cover the monolayer and incubate the flask at 3TC for 5-10 minutes. Trypsin-EDTA, is used mainly to detach the cells from the flask and prepare a single cell suspension. Finally, the number of cells can be determined by direct counting using a Neubauer chamber and cell viability is determined by staining the cells with trypan blue.
(§2) In the experimental study the in vitro effect of the compound type (I) was evaluated against ovarian cancer cell lines UWB1.289, UWB1.289+BRCA1 Kai SKOV-3.The cells were plated in 96-well plate (MTP) at a density of 1×10^4cells/m1 per well and maintained for 72 h at 3TC in a 5% CO2 incubator and grown as monolayers. The selection of the initial number of cells was made according to the rate of proliferation of the cell line, in order the cells throughout the experiment are in an exponential (log) growth phase. After 24 hours, cells were treated with 1-100 μmol/l of the tested compounds for 48 h. Experiments were carried out using triplicate wells. The viability of cultured cells was estimated by an (3-(4,5-imethylthiazol-2-yl)-2,5-diphenyltetrazolium bromide (MTT) metabolic assay as described previously (Finlay G J, Wilson W R and Baguley B C: Comparison of in vitro activity of cytotoxic drugs towards human carcinoma and leukaemia cell lines. Eur J Cancer Clin Oncol 22: 655-662, 1986; Alley M C, Scudiero D A, Monks A, Hursey M L, Czerwinski M J, Fine D L, et al. Feasibility of drug screening with panels of human tumor cell lines using a microculture tetrazolium assay. Cancer Res 1988; 48:589-601). MTT (Sigma, St Louis, Mo., USA) was dissolved in PBS in a concentration of 5 mg/ml, filter sterilized, and stored at 4° C. MTT (50 μl of stock solution) was added to each culture and incubated for 3 h at 3TC to allow metabolization. Formazan crystals were solubilized by DMSO (100 μl). Absorbance of the converted dye was measured at a wavelength of 540nm on ELISA reader (BioTek, Winooski, Vt., USA).
(§3) GI50: The mean concentration that causes 50% inhibition of cell growth (Growth Inhibition 50%). The calculation of the value is based on the formula: (Tt72x)−(Ct24)/(Ct72)-(Ct24)×100=50
TGI: The mean concentration that causes 100% inhibition of cell growth (Total Growth Inhibition). […]

[2] = test system: UWB1.289 + BRCA1 human ovarian cancer cell line; experiment: MTT cytostatic-cytotoxic activity, UWB1.289+BRCA1; details: for GI50 / IC50: Homo sapiens, UWB1289, UWB1.289+BRCA1, 48 h treatment; for IC50: kills 50% of the cells; for TGI: UWB1.289+BRCA1, 48 h treatment
Description: Human ovarian adenocarcinoma cells, derived from UBWB1,289, in which the presence of the BRCA1 gene has been restored. […] They are not susceptible to ionizing radiation and radioimmune chemical agents (e.g., alkylating agents). Also, UWB1.289 cells have mutated the p53 tumor suppressor gene, and are positive for the expression of cytokeratin 7 (CK-7), calretinin and Wilms' tumor protein (WT).
as §1, §2, §3
TGI: The mean concentration that causes 100% inhibition of cell growth (Total Growth Inhibition). The value is calculated according to the formula: (Tt72x)−(Ct24)/(Ct72)−(Ct24)×100=0
IC50: The mean concentration that kills 50% of the cells (Inhibition Concentration 50%). The value is calculated according to the formula: (Tt72x)−(Ct24)/(Ct24)×100=[…]

[3] = test system: MOLT-4 human acute T-leukemia cell line; experiment: MTT cytostatic-cytotoxic activity, MOLT-4; details: MOLT-4, 48 h treatment; for GI50 / IC50: Homo sapiens; for IC50: kills 50% of the cells
[4] = test system: T-47D human breast cancer cell line; experiment: MTT cytostatic-cytotoxic activity, T-47D; details: 48 h treatment; for GI50 / IC50: Homo sapiens, T47D; for GI50: 48 h; for IC50: kills 50% of the cells
[5] = test system: all 9 human cancer cell lines; experiment: MTT cytostatic-cytotoxic activity, all 9 human cancer cell lines

Structure (SMILES) | GI50 [1] [µM] | IC50 [1] [µM] | TGI [1] [µM] | GI50 [2] [µM] | IC50 [2] [µM] | TGI [2] [µM] | GI50 [3] [µM] | IC50 [3] [µM] | TGI [3] [µM] | TGI [4] [µM] | GI50 [4] [µM] | IC50 [4] [µM] | IC50 ([5]; Homo sapiens, read-out: (cytotoxic)) [µM] | GI50 ([5]; in all 9 human cancer cell lines, read-out: IG50 (cytostatic)) [µM]
COc1cc(Cc2nnc3sc(-c4ccc(Cl)cc4)nn23)c(S(=O)(=O)N(C)C)cc1OC [TS63, 3-[2-(N,N-dimethylsulfamoyl)-4,5-dimethoxybenzyl]-6-(4-chlorophenyl)-1,2,4-triazolo[3,4-b]-1,3,4-thiazole] | 3 | > 100 | 32 | 8 | > 100 | 64 | 6 | 78 | 45 | 55 | 27 | > 100 |  | 
COc1cc(Cc2nnc3sc(Cc4ccccc4)nn23)c(S(=O)(=O)N(C)C)cc1OC [TS62, 3-[2-(N,N-dimethylsulfamoyl)-4,5-dimethoxybenzyl]-6-benzyl-1,2,4-triazolo[3,4-b]-1,3,4-thiazole] | 8 | > 100 | 68 | 8 | > 100 | 64 | 7 | > 100 | 55 | >100 | 24 | > 100 |  | 
COc1cc(Cc2nnc3sc(-c4ccccc4)nn23)c(S(=O)(=O)N(C)C)cc1OC [TS167, 3-[2-(N,N-dimethylsulfamoyI)-4,5-dimethoxy-benzyl]-6-phenyl-1,2,4-triazolo[3,4-b]-1,3,4-thiazole] | 65 | > 100 | >100 | 76 | > 100 | >100 | 42 | > 100 | >100 | >100 | 52 | > 100 | > 100 | < 100
COc1cc(Cc2nnc3sc(/C=C/c4ccc(Cl)cc4)nn23)c(S(=O)(=O)N(C)C)cc1OC [TS26, 3-[2-(N,N-dimethylsulfamoyl)-4,5-dimethoxybenzyl]-6-(E)-4-chlorostyryl-1,2,4-triazolo[3,4-b]-1,3,4-thiazole] | 41 | > 100 | 87 | 11 | 54 | 37 | 32 | > 100 | 81 | >100 | 78 | > 100 |  | 
COc1cc(Cc2nnc3sc(/C=C/c4ccc(F)cc4)nn23)c(S(=O)(=O)N(C)C)cc1OC [TS25, 3-[2-(N,N-dimethylsulfamoyl)-4,5-dimethoxybenzyl]-6-(E)-4-fluorostyryl-1,2,4-triazolo[3,4-b]-1,3,4-thiazole] | 24 | 94 | 68 | 5 | 36 | 12 | 16 | 78 | 29 | 34 | 12 | 76 |  | 
COc1cc(Cc2nnc3sc(-c4ccc(N)cc4)nn23)c(S(=O)(=O)N(C)C)cc1OC [TS71, 3-[2-(N,N-dimethylsulfamoyl)-4,5-dimethoxybenzyl]-6-(4-aminophenyl)-1,2,4-triazolo[3,4-b]-1,3,4-thiazole] | 97 | > 100 | >100 | 90 | > 100 | >100 | 55 | > 100 | >100 | >100 | > 100 | > 100 |  | 
COc1ccc(Cc2nn3c(Cc4cc(OC)c(OC)cc4S(=O)(=O)N(C)C)nnc3s2)cc1 [TS50, 3-[2-(N,N-dimethylsulfamoyl)-4,5-dimethoxybenzyl]-6-(4-methoxybenzyl)-1,2,4-triazolo[3,4-b]-1,3,4-thiazole] | 5 | > 100 | 86 | 16 | > 100 | >100 | 10 | > 100 | >100 | >100 | 28 | > 100 |  | 
COc1cc(Cc2nnc3sc(-c4ccccc4N)nn23)c(S(=O)(=O)N(C)C)cc1OC [TS57, 3-[2-(N,N-dimethylosulfamoyl)-4,5-dimethoxybenzyl]-6-(2-aminophenyl)-1,2,4-triazolo[3,4-b]-1,3,4-thiazole] | 95 | > 100 | >100 | 85 | > 100 | >100 | 94 | > 100 | >100 | >100 | > 100 | > 100 |  | 
